In patent US20230009608A1, “GRK2 INHIBITORS AND USES THEREOF” (Cygnal Therapeutics, Inc., priority 2020, published 2023):

system: PAXF1657 control empty vector cell line; test: 7-day proliferation assay, PAXF1657 control empty vector cell line (Example 9); format: cell-based; details: 168 h; Cell Line: PAXF1657 empty vector (EV) cell line; 7-day; read-out: C: 7-day proliferation assay: IC50 GeoMean
Protocol: In order to identify compounds specific for GRK2, we generated two isogenic cell line pairs of the pancreatic cancer cell line PAXF1657, a pair of cells stably overexpressing GRK2 cDNA or the control empty vector and a cell line pair of PAXF1657 GRK2 knockout clonal cells versus non-targeting control clonal cells.
Proliferation Assay: Cellular anti-proliferative activity of compounds was assessed by using the pancreatic cancer cell line, PAXF1657, stably overexpressing GRK2 cDNA or the control empty vector, as well as the parental urinary bladder cancer cell line, 5637. In addition, we also took advantage of GRK2 knockout cell lines that were generated via CRISPR. Cell lines were seeded into tissue culture treated, white-walled, 96-well plates at a density of 500 cells/well in RPMI1640 media supplemented with 10% H.I. FBS and penicillin/streptomycin. Plates were incubated overnight at 37° C., 5% CO2 to allow cells to adhere to the wells. GRK2 inhibitors were added to the cells using a 10-point dilution series with a final concentration ranging from 30 μM-0.0002 μM in 0.3% DMSO. At the time of compound addition, a set of plates, that were not treated with compounds, were collected and cell viability was measured using CellTiter-Glo (Promega). CellTiter-Glo reagent was added to the designed plates and luminescence was measuring using a Biotek Synergy plate reader. The compound treated cells were incubated for 3 days at 37° C., 5% CO2. The media was then aspirated from each well and replaced with fresh media containing GRK2 inhibitors. The compound treated cells were then incubated for an additional 4 days at 37° C., 5% CO2. Cell viability was assessed and at end of the 7-day compound treatment by CellTiterGlo.

Compound	IC50
COc1cccc(CNC(=O)c2cccc(NCc3nnc(-c4ccncn4)n3C)c2)c1OC	> 10 µM
CCOc1ccccc1CNC(=O)c1cccc(NCc2nnc(-c3ccncc3)[nH]2)c1	> 30 µM
CCn1nnc(C)c1CNC(=O)c1cccc(NCc2nnc(-c3ccncc3)[nH]2)c1	0.651 µM
O=C(NC1(c2ncccn2)CC1)c1cccc(NCc2nnc(-c3ccncc3)[nH]2)c1	> 10 µM
Cc1nnc(CNC(=O)c2cccc(NCc3nnc(-c4ccncc4)[nH]3)c2)n1C	> 10 µM
CC(NC(=O)c1cccc(NCc2nnc(-c3ccncc3)[nH]2)c1)c1ncnn1C (centres unmarked)	> 10 µM
Cn1c(CNc2cccc(C(=O)NCc3cc(C(F)(F)F)ccn3)c2)nnc1-c1ccncn1	> 10 µM
Cn1c(CNc2cccc(C(=O)NCc3ccncc3)c2)nnc1-c1ccncn1	> 10 µM
CC(C)n1ncnc1CNC(=O)c1cccc(NCc2nnc(-c3ccncn3)n2C)c1	> 10 µM
Cc1ncc(CNC(=O)c2cccc(NCc3nnc(-c4ccncn4)n3C)c2)s1	> 10 µM
O=C(NCc1nnc2n1CCCCC2)c1cccc(NCc2nnc(-c3ccncc3)[nH]2)c1	> 10 µM
CCN(CC)Cc1ccccc1CNC(=O)c1cccc(NCc2nnc(-c3ccncn3)n2C)c1	> 10 µM
Cn1c(CNc2cccc(C(=O)NCc3nc(C4CC4)cs3)c2)nnc1-c1ccncn1	2.6 µM
CC(NC(=O)c1cccc(NCc2nnc(-c3ccncc3)[nH]2)c1)c1cn[nH]c1 (centres unmarked)	0.323 µM
Cn1c(CNc2cccc(C(=O)NCc3cccc(CN4CCOCC4)c3)c2)nnc1-c1ccncn1	> 10 µM
CC(NC(=O)c1cccc(NCc2nnc(-c3ccncn3)n2C)c1)c1nccn1-c1ccccc1 (centres unmarked)	> 10 µM
Cn1cc(C(NC(=O)c2cccc(NCc3nnc(-c4ccncn4)n3C)c2)c2ccc(F)cc2)cn1 (centres unmarked)	> 10 µM
CN1CCC(CNC(=O)c2cccc(NCc3nnc(-c4ccncc4)[nH]3)c2)C1=O (centres unmarked)	> 10 µM
O=C(NCC1CC1(F)F)c1cccc(NCc2nnc(-c3ccncc3)[nH]2)c1 (centres unmarked)	> 10 µM
Cn1c(CNc2cccc(C(=O)NC3(c4cccnc4)CCC3)c2)nnc1-c1ccncn1	> 10 µM
CC1CC(NC(=O)c2cccc(NCc3nnc(-c4ccncn4)n3C)c2)c2ncnn21 (centres unmarked)	> 10 µM
C[C@H](NC(=O)c1cccc(NCc2nnc(-c3ccncn3)n2C)c1)c1cnccn1	1.51 µM
Cn1c(CNc2cccc(C(=O)NCc3cc4n(n3)CCCC4)c2)nnc1-c1ccncn1	2.21 µM
Cc1nc(C)c(CNC(=O)c2cccc(NCc3nnc(-c4ccncc4)[nH]3)c2)o1	> 10 µM

Compound	IC50
Cn1c(CNc2cccc(C(=O)NCc3cncs3)c2)nnc1-c1ccncn1	> 10 µM
Cc1nn(C)c(C)c1CNC(=O)c1cccc(NCc2nnc(-c3ccncc3)[nH]2)c1	> 10 µM
Cc1cc(CNC(=O)c2cccc(NCc3nnc(-c4ccncn4)n3C)c2)ccn1	> 10 µM
Cn1c(CNc2cccc(C(=O)NCc3cccc(C(F)(F)F)n3)c2)nnc1-c1ccncn1	1.86 µM
Cn1c(CNc2cccc(C(=O)NC(c3ncccn3)C(C)(C)C)c2)nnc1-c1ccncn1 (centres unmarked)	> 10 µM
COCCn1nc(C)c(CNC(=O)c2cccc(NCc3nnc(-c4ccncc4)[nH]3)c2)c1C	> 10 µM
C[C@H](NC(=O)c1cccc(NCc2nnc(-c3ccncn3)n2C)c1)c1ncccc1F	0.738 µM
Cn1c(CNc2cccc(C(=O)N[C@H]3CCOc4c(F)cc(F)cc43)c2)nnc1-c1ccncn1	> 10 µM
CN(C)CCC(NC(=O)c1cccc(NCc2nnc(-c3ccncc3)[nH]2)c1)c1cccnc1 (centres unmarked)	> 10 µM
C[C@H](NC(=O)c1cccc(NCc2nnc(-c3ccncn3)n2C)c1)c1ccccn1	2.58 µM
CC(C)n1ncnc1CNC(=O)c1cccc(NCc2nnc(-c3ccncc3)[nH]2)c1	> 10 µM
COc1ccccc1C1(NC(=O)c2cccc(NCc3nnc(-c4ccncn4)n3C)c2)CC1	> 10 µM
C[C@H](NC(=O)c1cccc(NCc2nnc(-c3ccncn3)n2C)c1)c1cncc(F)c1	2.3 µM
Cn1c(CNc2cccc(C(=O)NCc3nncn3C3CC3)c2)nnc1-c1ccncn1	> 10 µM
Cn1cc(C(C)(C)NC(=O)c2cccc(NCc3nnc(-c4ccncn4)n3C)c2)cn1	> 10 µM
Cc1n[nH]cc1CNC(=O)c1cccc(NCc2nnc(-c3ccncc3)[nH]2)c1	> 10 µM
Cn1c(CNc2cccc(C(=O)NCc3ccc4c(c3)CNC4=O)c2)nnc1-c1ccncn1	> 10 µM
Cn1c(CNc2cccc(C(=O)NC3(c4ccccn4)CCC3)c2)nnc1-c1ccncn1	> 10 µM
COc1ccnc(CNC(=O)c2cccc(NCc3nnc(-c4ccncn4)n3C)c2)c1	3.15 µM
O=C(NC1(c2cccnc2)CC1)c1cccc(NCc2nnc(-c3ccncc3)[nH]2)c1	> 10 µM
Cn1c(CNc2cccc(C(=O)NCc3nc4ccccc4o3)c2)nnc1-c1ccncn1	> 10 µM
CC[C@H](NC(=O)c1cccc(NCc2nnc(-c3ccncn3)n2C)c1)c1ccccn1	> 10 µM
Cn1cnnc1CNC(=O)c1cccc(NCc2nnc(-c3ccncc3)[nH]2)c1	> 10 µM
CC(O)C(NC(=O)c1cccc(NCc2nnc(-c3ccncn3)n2C)c1)c1ccccc1 (centres unmarked)	1.76 µM

Compound	IC50
CC(C)Cn1nccc1CNC(=O)c1cccc(NCc2nnc(-c3ccncn3)n2C)c1	2.01 µM
CCOc1ncccc1CNC(=O)c1cccc(NCc2nnc(-c3ccncn3)n2C)c1	3.61 µM
C[C@H](NC(=O)c1cccc(NCc2nnc(-c3ccncc3)[nH]2)c1)c1ccnn1C	9.81 µM
CC(C)n1nccc1CNC(=O)c1cccc(NCc2nnc(-c3ccncn3)n2C)c1	> 10 µM
CC(C)C(NC(=O)c1cccc(NCc2nnc(-c3ccncn3)n2C)c1)c1nncn1C (centres unmarked)	> 10 µM
CCn1ncnc1CNC(=O)c1cccc(NCc2nnc(-c3ccncc3)[nH]2)c1	> 10 µM
Cn1cc2c(n1)CCCC2NC(=O)c1cccc(NCc2nnc(-c3ccncc3)[nH]2)c1 (centres unmarked)	> 10 µM
Cn1c(CNc2cccc(C(=O)NC(CO)c3cccc(F)c3)c2)nnc1-c1ccncn1 (centres unmarked)	2.48 µM
O=C(NC[C@H]1COCCO1)c1cccc(NCc2nnc(-c3ccncc3)[nH]2)c1	1.12 µM
COc1cnccc1C(C)NC(=O)c1cccc(NCc2nnc(-c3ccncc3)[nH]2)c1 (centres unmarked)	> 10 µM
COc1ccc2c(c1)OCC[C@@H]2NC(=O)c1cccc(NCc2nnc(-c3ccncn3)n2C)c1	10.1 µM
Cn1c(CNc2cccc(C(=O)NCc3ccccn3)c2)nnc1-c1ccncn1	> 10 µM
Cc1nc(C2(NC(=O)c3cccc(NCc4nnc(-c5ccncn5)n4C)c3)CC2)cs1	4.74 µM
COc1cnccc1CNC(=O)c1cccc(NCc2nnc(-c3ccncn3)n2C)c1	> 10 µM
Cc1ccnc(C(C)NC(=O)c2cccc(NCc3nnc(-c4ccncn4)n3C)c2)n1 (centres unmarked)	> 10 µM
CCc1cc(CNC(=O)c2cccc(NCc3nnc(-c4ccncn4)n3C)c2)no1	3.55 µM
[2H]C([2H])(Nc1cccc(C(=O)N[C@@H]2COCc3ccccc32)c1)c1nnc(-c2ccncn2)n1C	0.116 µM
Cn1nccc1C(NC(=O)c1cccc(NCc2nnc(-c3ccncn3)n2C)c1)c1ccccc1 (centres unmarked)	> 10 µM
CN(C)CCC(NC(=O)c1cccc(NCc2nnc(-c3ccncc3)[nH]2)c1)c1ccccc1 (centres unmarked)	> 10 µM
Cn1c(CNc2cccc(C(=O)NCc3ccn(C4CCCC4)n3)c2)nnc1-c1ccncn1	> 10 µM
Cn1c(CNc2cccc(C(=O)NCc3ccnc(C(F)(F)F)c3)c2)nnc1-c1ccncn1	0.995 µM
COCc1cccc(CNC(=O)c2cccc(NCc3nnc(-c4ccncn4)n3C)c2)c1	2.53 µM
COCC(C)(NC(=O)c1cccc(NCc2nnc(-c3ccncn3)n2C)c1)c1ccccc1 (centres unmarked)	0.88 µM
